{"source": "patent US8343536B2", "about": "“Biofilm-inhibiting medical products” (Cook Biotech Incorporated, priority 2007, dated 2013)", "key": {"mice": {"tested_on": "mice", "assay": "Mouse subcutaneous implant method, in vivo angiogenesis and tolerability of BisEDT coated SIS (Example 7)", "settings": "10 or 100 μg/cm^2 on SIS, 3 weeks", "method": "The Example was performed to compare the in vivo angiogenic response to SIS compared to 2 levels of BisEDT coated SIS. The model used to detect in vivo angiogenesis was the mouse subcutaneous implant method as generally described by Heeschen et al., Nat. Med. […]; 7:833-9.\nBisEDT was obtained from Microbion, Inc. as previously described. All SIS based grafts were made from 4-layer lyophilized sheets as described in the previous Examples. Sample groups consisted of this material coated with 10 μg/cm^2 BisEDT or 100 μg/cm^2 BisEDT. Each material was cut into ten 15 mm discs. Nylon filters with 0.22 μm pores were sewn on to the top and bottom of each disc. Low temperature ethylene oxide sterilization was used for each sample.\nSamples were implanted subcutaneously into the dorsal flanks of mice. After anesthesia using Ketamine (87 mg/kg) and Xylazine (13 mg/kg), a small incision was made on the posterior neck of the mouse and a dorsal subcutaneous cavity was created using blunt dissection with hemostats. This was followed by sample placement and closure of the incision with 4 interrupted stitches of 5-0 suture. Six mice per group underwent disc implantation. The implant remained in the mice for a period of 3 weeks followed by probing for capillary formation.\nMice were sacrificed using a double dose of anesthesia to ensure intact flow in vasculature. While the heart was still beating, the chest cavity was exposed, vena cava severed, and 10 ml of heparized saline injected into the left ventricle using a 23 ga butterfly infusion set to exsanguinate the mouse. After transferring syringes (while maintaining infusion needle in left ventricle), 4 ml of a fluorescent microsphere (yellow-green, 0.1 μm diameter, Molecular Probes, F-8803) suspension (1:20 dilution of stock suspension) was injected through the left ventricle resulting in perfusion of the entire vasculature. Care was taken to ensure no bubbles were introduced during the injections, as bubbles will cause micro-emboli obstructing consistent perfusion. […]"}, "S. aureus (ATCC #25983) [1]": {"tested_on": "S. aureus (ATCC #25983)", "assay": "Zone-of-inhibition after ethylene oxide or E-beam sterilization of coated SIS discs (Example 4)", "format": "cell-based", "method": "BisEDT was obtained from Microbion, Inc. as previously described. Small intestinal submucosa (SIS) was obtained and processed into 4-layer lyophilized sheets as described in Example 1. The sheets were subsequently cut into 15 mm discs (˜1.76 cm^2) using a disc punch. BisEDT was resuspended in dimethyl sulfoxide (DMSO) and diluted to appropriate concentrations for coating. Discs were coated with the BisEDT solution at a final concentration of 0.35 μg/μl using 50 μl of the solution per disc for a final concentration of 10 μg/cm^2. The discs were subsequently placed in a lyophilizer overnight to remove the DMSO solvent. For the ethylene oxide sterilization compatibility experiment, 6 discs were coated with 10 μg/cm^2 BisEDT and packaged into 2 separate tyvek pouches with 3 discs per pouch. One pouch was placed in a drawer until use and left non-sterile and the other pouch was sterilized with low temperature ethylene oxide sterilization. For the E-beam sterilization, essentially the same process was performed except the discs were packaged in foil pouches and the samples were subjected to E-beam sterilization with a dose of ˜25 kGy. S. aureus (ATCC #25983) was used as the bacteria for this experiment. Bacteria was grown in Tryptic Soy Broth for 16-24 hours before placing a lawn on Tryptic Soy Agar in 100 mm Petri dishes. […]"}, "E. coli (ATCC #25922)": {"tested_on": "E. coli (ATCC #25922)", "assay": "Zone-of-inhibition measured by image analysis, coated SIS discs (Example 2)", "format": "cell-based", "settings": "10 μg/cm^2 on SIS disc, 24 hours, n=3", "method": "(§1) BisEDT (Molar ratio 1:1.5), BisBAL (1:1.5), and BisERY (1:1.5) (50 mg each) were obtained from Microbion, Inc. Small intestinal submucosa (SIS) was obtained and processed into 4-layer lyophilized sheets as described in Example 1. The sheets were subsequently cut into 15 mm discs (˜1.76 cm^2) using a disc punch. Bismuth thiols were resuspended in dimethyl sulfoxide (DMSO) and diluted to 0.35 μg/μl for coating. Discs were coated with the bismuth thiol solutions 50 μl of the appropriate solution per disc for a final concentration 10 μg/cm^2 (0.35 μg/μl*50 μl=17.5 μg/1.76 cm^2=10 μg/cm^2). The discs were subsequently placed in a lyophilizer overnight to remove the DMSO solvent. Control discs were prepared using 50 μl of DMSO without a bismuth thiol preparation. 3 bacteria were used for this experiment: S. aureus (ATCC #25983), P. aeruginosa (ATCC #27853), and E. coli (ATCC #25922). Bacteria was grown in Tryptic Soy Broth for 16-24 hours before placing a lawn on Tryptic Soy Agar in 100 mm Petri dishes.\n(§2) Thirty samples were tested in total (3 bismuth thiol preparations @ n=3→9+1 control=10×3 bacteria=30). A lawn of one of the three bacteria investigated was swabbed onto the Tryptic Soy Agar. The bismuth thiol coated disc was rehydrated for ˜5 minutes in sterile saline and placed approximately in the center of the plate. Plates were incubated inverted for 24 hours at which time pictures were taken with a digital camera. Zones-of-inhibition were measured using image analysis software (Spot RT) by determining the distance of bacterial growth inhibition from the disc edge."}, "S. aureus (ATCC #25983) [2]": {"tested_on": "S. aureus (ATCC #25983)", "assay": "Zone-of-inhibition measured by image analysis, coated SIS discs (Example 2)", "format": "cell-based", "settings": "10 μg/cm^2 on SIS disc, 24 hours, n=3", "method": "as §1, §2"}}}
{"substance": "bismuth-1,2-ethanedithiol [BisEDT]", "values": [{"measurement": "Angiogenic potential of coated SIS", "setting": "mice", "value": "neither level of BisEDT (10 or 100 μg/cm^2) coated onto the SIS affected the angiogenic potential"}, {"measurement": "Local toxicity at explant", "setting": "mice", "value": "no visual evidence of local toxicity at explant"}, {"measurement": "Systemic toxicity", "setting": "mice", "value": "no observed symptoms of systemic toxicity"}, {"measurement": "Zone-of-inhibition, visual", "setting": "S. aureus (ATCC #25983) [1]; S. aureus, 10 μg/cm^2 on SIS disc, sterilized (ethylene oxide or E-beam ~25 kGy) and non-sterile", "value": "effectiveness at creating a zone-of-inhibition"}, {"measurement": "Compatibility with sterilization technique", "setting": "S. aureus (ATCC #25983) [1]; ethylene oxide vs E-beam (~25 kGy), zone-of-inhibition against S. aureus compared visually", "value": "E-beam sterilization exhibited greater compatibility with BisEDT than ethylene oxide sterilization"}, {"measurement": "Zone-of-inhibition, distance of bacterial growth inhibition from the disc edge", "setting": "E. coli (ATCC #25922)", "value": 1.28}, {"measurement": "Zone-of-inhibition, distance of bacterial growth inhibition from the disc edge", "setting": "S. aureus (ATCC #25983) [2]", "value": 6.83}]}
